US9808434B2, “Compound for treating cancer and diabetes” (CITY OF HOPE, priority 2011, dated 2017)

How the values were obtained:
[1] = system: AMPK; assay: AMPK activation in Hela cells, Western blot; format: cell-based; conditions: 1 hour, 1, 3 or 5 μM
Description: Activation of AMPK was associated with the phosphorylation of the α-subunit on Thr-172 of as assessed using phospho-specific antibodies (FIGS. 10A-B). AMPK activation also leads to the increased phosphorylation of the target protein acetyl-CoA carboxylase (ACC) (FIG. 10B).
Cells of each cell lines (Hela, HL-60, and 3T3-L1) were treated for 1 hour with a test compound (COH-SR4, COH-SR9, COH-SR16, or COH-SR18) at a concentration of 1 μM, 3 μM, or 5 μM, or AICAR (5-aminoimidazole-4-carboxamideriboside, an AMPK agonist used as positive control) at a concentration of 500 μM, or none of the above (the untreated cells as negative control). Total cell lysates from the untreated cells and the cells treated with a test compound or AICAR were analyzed by Western blot assay using specific antibodies against phospho-AMPK, phospho-ACC, total AMPK and total ACC.

[2] = system: NCI-60 human tumor cell lines; assay: NCI-60 DTP Human Tumor Cell Line Drug Screening; format: cell-based; conditions: leukemia, NSCLC, colon, CNS, melanoma, ovarian, renal, prostate, breast lines
Text: Moreover, preliminary data from the NCI-60 DTP Human Tumor Cell Line Drug Screening (http://dtp.nci.nih.gov/branches/btb/ivclsp.html) further confirmed the observations on these COH-SR compounds. […] A value of 100 meant no growth inhibition. A value of 20 meant 80% growth inhibition. A value of 0 meant no net growth over the course of the experiment. A value of −40 meant 40% lethality. A value of −100 meant all cells were dead.

[3] = system: HL-60 cells; assay: Differentiation of HL-60 cells (Giemsa-Wright, NBT, CD11b/CD14); format: cell-based, human; conditions: 48 hours, 2-10 μM
Description: HL-60 cells were incubated with a test compound at various concentrations (2˜10 μM), DMSO, or without any test compound for 48 hours, and then examined for morphologic changes by Giemsa-Wright stain. The results were observed microscopically and shown in FIG. 13 at a magnification of ×400. […] Such results were similar to cells treated with DMSO or all-trans retinoic acid (ATRA), wherein DMSO or ATRA terminally differentiated HL-60 cells into myeloid cells (FIG. 13).
HL-60 cells (2.5×10^5) were treated with or without a test compound for 48 hours and then stained with NBT, wherein positively-stained cells appeared as purple black (FIG. 14A). NBT positive cells were counted and the overall percentage was calculated based on 200 total cells counted for each treatment. Three˜four independent experiments were carried out, and data are shown as mean±SE (FIG. 14B). This measurement of “oxidative burst” by the NBT assay is a well-known and extensively tested functional marker of HL-60 cell differentiation.
HL-60 cells (2.5×10^5) were incubated with a test compound (COH-SR4 or COH-SR9) at a concentration of 0.5 μM, 1 μM, 2 μM, or 3 μM, or without any COH-SR compound for 48 hours and then assessed for the surface expression of CD11b (FIG. 14C) and CD14 (FIG. 14D) by flow cytometry, respectively. Three-four independent experiments were carried out, and data are shown as mean±SE (FIGS. 14C and 14D).

[4] = system: HL-60 cells; assay: HL-60 cell viability, MTT assay; conditions: for cytotoxicity and cell proliferation: 48 hours, 1-15 μM; for IC50: Homo sapiens, HL-60, 48 h
Description: Three independent experiments were carried out with 3 duplications each, and data are shown as mean±SE.

[5] = system: fully differentiated adipocytes; assay: Dedifferentiation of fully differentiated adipocytes, Oil Red O staining; format: cell-based; conditions: differentiated 7 days, treated additional 3 days
Description: Fully differentiated adipocyte cells were differentiated for 7 days and were treated for additional 3 days with DM+ a test compound (COH-SR3, COH-SR7, or LR59), DM+ a positive control (Apicidin, TSA or C75), DM, or nothing (control).

[6] = system: 3T3-L1 cells; assay: Intracellular triglyceride contents, AdipoRed Assay; format: cell-based, mouse; conditions: 7 days in DM + compound
Description: Intracellular triglyceride contents were measured using AdipoRed Assay™ and the results were shown in relative fluorescence units (RFU) in FIG. 5.
(§1) 3T3-L1 preadipocytes cells were treated with differentiating media (DM) with COH-SR4 (1 μM, 3 μM, or 5 μM) or without for 7 days. […] As used in FIG. 9C, U=undifferentiated, D=differentiated with cocktail media.

[7] = system: 3T3-L1 cells; assay: Adipocyte differentiation, Oil Red O staining; format: cell-based, mouse; conditions: preadipocytes 7 days in differentiating media (DM) + compound
Description: Two-day post-confluent 3T3-L1 preadipocyte cells were allowed to differentiate for 7 days in the presence of nothing, DM only, DM+ a test compound (COH-SR1, COH-SR2, COH-SR3, COH-SR4, COH-SR7, LR23 or LR59), or DM+ a positive control (TSA, C75, or Apicidin).
as §1

[8] = system: undifferentiated 3T3-L1 cells; assay: Preadipocyte viability, MTT assay; format: cell-based, mouse; conditions: 3 days, 2.5-25 μM
Description: Undifferentiated 3T3-LI cells were treated with COH-SR2, COH-SR3, COH-SR4, COH-SR7, LR23 or LR59 for 3 days at a concentration of 2.5 μM, 5 μM, 10 μM, 15 μM, 20 μM, or 25 μM. The cell viability for each treatment was determined by MTT assay (FIG. 7).

[9] = system: U251; assay: Glioma ATP viability assay, U251; format: cell-based; conditions: Table 2
Description: (§2) Cells of each cell line (U251, U87, PBT-017, PBT018, PBT003 and PBT028) were treated with various concentrations (0˜100 μM) of COH-SR4 for 72 hours. Cell viabilities were determined by ATP viability assays. Data were represented as a ratio to vehicle (DMSO) control, and plotted as mean±SEM (n=12) obtained from 2˜3 experiments (FIG. 34A).
as §2, with “(U87, U251,” for “(U251, U87, PBT-017, PBT018,”, “PVT-017)” for “PBT028)”, “2-3” for “2˜3”, “34B).” for “34A).”
Cells of each cell line were treated with various concentrations (0˜100 μM) of COH-SR4 or various concentrations (0˜1000 μM) of TMZ for 72 hours. Cell viabilities were determined by ATP viability assays. Data were represented as a ratio to untreated cells as control, and plotted as mean±SEM (n=12) obtained from 2˜3 experiments (FIGS. 43A-B).

[10] = system: HMLE breast cancer cell line; assay: HMLE viability, DIMSCAN assay; format: cell-based, human; conditions: 3 days, 2-50 μM
Description: The effects of COH-SR compounds on breast cancer cells were investigated. Cells from 4T1 or HMLE breast cancer cell line were seeded in 96-well plates (about 2000 cells/well), allowed to proliferate for one day, treated with a COH-SR compound, doxorubicin, paclitaxel, cisplatin, or nothing (control) at a specific dose (3 wells for each treatment) and assayed for cell viability 3 days after using DIMSCAN assay. COH-SR3, COH-SR4, COH-SR9, doxorubicin, paclitaxel, and cisplatin were used at a dosage of 40 nM, 200 nM, 1 μM, 2 μM, 10 μM, or 50 μM for 4T1 breast cancer cell lines. COH-SR14 was used at a dosage of 40 nM, 200 nM, 1 μM, 2 μM, or 10 μM for 4T1 breast cancer cell lines. COH-SR3, COH-SR4, COH-SR9, doxorubicin, paclitaxel, and cisplatin were used at a dosage of 2 μM, 10 μM, or 50 μM for HMLE breast cancer cell lines. COH-SR14 was used at a dosage of 2 μM, or 10 μM for HMLE breast cancer cell lines.

Compound: O=C(Nc1cc(Cl)cc(Cl)c1)Nc1cc(Cl)nc(Cl)c1 [COH-SR16, 1-(2,6-dichloropyridin-4-yl)-3-(3,5-dichlorophenyl) urea]
- AMPK activation [1]: Dose-dependent AMPK activation
- activity in NCI-60 screening [2]: active against

Compound: COc1ccc(-c2ccccc2)cc1NC(=O)Nc1cc(Cl)cc(Cl)c1 [COH-SR6, 1-(3,5-dichlorophenyl)-3-(4-methoxy-[1,1′-bisphenyl]-3-yl) urea]
- morphologic changes (Giemsa-Wright stain), myeloid differentiation [3]: exhibited cytoplasmic vacuolation, reduced nucleus-to-cytoplasmic ratio, and absence of prominent nucleoli
- cytotoxicity and cell proliferation [4]: exhibited cytotoxicity and prevented cell proliferation of HL-60 leukemia cells
- activity in NCI-60 screening [2]: active against

Compound: O=C(Nc1cc(Cl)cc(Cl)c1)Nc1ccnc(Cl)n1 [COH-SR18, 1-(2-chloropyrimidin-4-yl)-3-(3,5-dichlorophenyl) urea]
- AMPK activation [1]: Dose-dependent AMPK activation

Compound: 1-(4-chlorobenzyl)-3-dichlorophenyeureido)-4-phenoxyisobutyric acid [LR59]
- dedifferentiation of fully differentiated adipocytes [5]: induced dedifferentiation of fully differentiated adipocytes
- intracellular triglyceride contents (AdipoRed Assay) [6]: dose-dependently reduced
- differentiation and accumulation of lipid droplets (Oil Red O staining) [7]: dose-dependently inhibited differentiation and accumulation of lipid droplets

Compound: COc1cc(/C=C/C(=O)/C=C(O)/C=C/c2ccc(OC(C)=O)c(OC)c2)ccc1O [COH-SR2, (1E,4Z,6E)-7-(4″-acetoxy-3″-methoxyphenyl)-5-hydroxy-1-(4′-hydroxy-3′-methoxyphenyl)hepta-1,4,6-trien-3-one]
- intracellular triglyceride contents (AdipoRed Assay) [6]: dose-dependently reduced
- growth of undifferentiated preadipocytes (MTT) [8]: inhibited growth of undifferentiated 3T3-L1 cells
- differentiation and accumulation of lipid droplets (Oil Red O staining) [7]: dose-dependently inhibited differentiation and accumulation of lipid droplets
- activity in NCI-60 screening [2]: active against

Compound: COc1cc(CCC(=O)CC(=O)CCc2ccc(OC(C)=O)c(OC)c2)ccc1OC(C)=O [COH-SR1, 1,7-bis(4′-acetoxy-3′-methoxyphenyl)-3,5-heptadione]
- intracellular triglyceride contents (AdipoRed Assay) [6]: dose-dependently reduced
- differentiation and accumulation of lipid droplets (Oil Red O staining) [7]: dose-dependently inhibited differentiation and accumulation of lipid droplets

Compound: CCc1c2c(nc3ccc(OC(=O)N4CCC(N5CCCCC5)CC4)cc13)-c1cc3c(c(=O)n1C2)COC(=O)[C@]3(O)CC [CPT-11, irinotecan]
- IC50 ([9]; Homo sapiens, U-251, 72 h): 41.1 µM

Compound: Cc1c(Cl)cc(NC(=O)Nc2cc(Cl)cc(Cl)c2)cc1Cl [COH-SR14, 1-(3,5-dichloro-4-methylphenyl)-3-(3,5-dichlorophenyl) urea]
- cytotoxic effects compared with doxorubicin, paclitaxel and cisplatin (FIG. 30) [10]: more potent cytotoxic effects
- IC50 [4]: < 5 µM
- activity in NCI-60 screening [2]: active against

Compound: O=c1[nH]cc(F)c(=O)[nH]1 [5-FU]
- IC50 ([9]; 72 hours): 61 µM

Compound: O=C(Nc1ccc(Cl)c(Cl)c1)Nc1ccc(Cl)c(Cl)c1 [COH-SR3, 1,3-bis(3,4-dichlorophenyl)urea]
- dedifferentiation of fully differentiated adipocytes [5]: induced dedifferentiation of fully differentiated adipocytes
- intracellular triglyceride contents (AdipoRed Assay) [6]: dose-dependently reduced
- growth of undifferentiated preadipocytes (MTT) [8]: inhibited growth of undifferentiated 3T3-L1 cells
- cytotoxic effects compared with doxorubicin, paclitaxel and cisplatin (FIG. 30) [10]: more potent cytotoxic effects
- morphologic changes (Giemsa-Wright stain), myeloid differentiation [3]: exhibited cytoplasmic vacuolation, reduced nucleus-to-cytoplasmic ratio, and absence of prominent nucleoli
- differentiation and accumulation of lipid droplets (Oil Red O staining) [7]: dose-dependently inhibited differentiation and accumulation of lipid droplets
- cytotoxicity and cell proliferation [4]: exhibited cytotoxicity and prevented cell proliferation of HL-60 leukemia cells
- IC50 [4]: < 5 µM
- activity in NCI-60 screening [2]: active against

Compound: CC(C)(Oc1ccc(NC(=O)Nc2cc(Cl)cc(Cl)c2)cc1)C(=O)NC1(C(=O)O)CCCCC1 [LR23, 4-(3,5-dichlorophenylureido)phenoxyisobutyryl-1-amidocyclohexane-lcarboxylic acid]
- intracellular triglyceride contents (AdipoRed Assay) [6]: dose-dependently reduced
- differentiation and accumulation of lipid droplets (Oil Red O staining) [7]: dose-dependently inhibited differentiation and accumulation of lipid droplets

Compound: CCc1c2c(nc3ccc(O)cc13)-c1cc3c(c(=O)n1C2)COC(=O)[C@]3(O)CC [SN-38, 7-ethyl-10-hydroxy-camptothecin]
- IC50 ([9]; 72 hours): 0.04 µM

Compound: CC(C)(Oc1ccc(NC(=O)Nc2cc(Cl)cc(Cl)c2)cc1)C(=O)Nc1ccc(C(=O)O)cc1 [COH-SR7, 4-[(3,5-dichlorophenylureido)phenoxyisobutyril]-4-aminobenzoic acid]
- dedifferentiation of fully differentiated adipocytes [5]: induced dedifferentiation of fully differentiated adipocytes
- intracellular triglyceride contents (AdipoRed Assay) [6]: dose-dependently reduced
- growth of undifferentiated preadipocytes (MTT) [8]: inhibited growth of undifferentiated 3T3-L1 cells
- morphologic changes (Giemsa-Wright stain), myeloid differentiation [3]: exhibited cytoplasmic vacuolation, reduced nucleus-to-cytoplasmic ratio, and absence of prominent nucleoli
- differentiation and accumulation of lipid droplets (Oil Red O staining) [7]: dose-dependently inhibited differentiation and accumulation of lipid droplets
